Measurements published in ChEMBL document CHEMBL6078677, “Discovery and optimization of tetrahydroacridine derivatives as a novel class of antibiotics against multidrug-resistant Gram-positive pathogens by targeting type I signal peptidase and disrupting bacterial membrane” (Eur J Med Chem, 2025).
Converted amounts (≈) assume the structure as drawn.

Experiments:
Format in all cases: functional
Staphylococcus aureus = assay: Antimicrobial activity against Staphylococcus aureus ATCC 29213 assessed as inhibition of visible growth of bacteria incubated for 20 hrs by broth microdilution method
Enterococcus faecium = assay: Antimicrobial activity against Enterococcus faecium QF31 harboring erythromycin resistance rRNA methylase B and chloramphenicol-florfenicol resistance methylase assessed as inhibition of visible growth of bacteria incubated for 20 hrs by broth microdilution method
Enterococcus faecalis = assay: microbe, parasite or virus in culture; settings: SF23-1, time 20 hrs
Description: Antimicrobial activity against Enterococcus faecalis SF23-1 harboring erythromycin-resistance rRNA methylase B, tetracycline efflux protein L and chloramphenicol-florfenicol resistance methylase assessed as inhibition of visible growth of bacteria incubated for 20 hrs by broth microdilution method

Streptococcus suis = assay: Antimicrobial activity against Streptococcus suis P1/7 assessed as inhibition of visible growth of bacteria incubated for 20 hrs by broth microdilution method

Structure (SMILES)	MIC (Staphylococcus aureus)	MIC (Enterococcus faecium)	MIC (Enterococcus faecalis)	MIC (Streptococcus suis)
CC1(C)C/C(=C\c2ccc(-c3ccc(Cl)c(C(F)(F)F)c3)o2)c2nc3ccccc3c(C(=O)O)c2C1	32 µg/mL (≈ 62.5 µM)	8 µg/mL (≈ 15.6 µM)	4 µg/mL (≈ 7.81 µM)	32 µg/mL (≈ 62.5 µM)
FC(F)(F)c1cc(-c2ccc(/C=C3\CCCc4c3nc3ccccc3c4Cl)o2)ccc1Cl	> 64 µg/mL	64 µg/mL (≈ 135 µM)	> 64 µg/mL	> 64 µg/mL
O=C(O)C1=c2ccccc2=NC2/C(=C/c3cccc(-c4ccc(Cl)c(C(F)(F)F)c4)c3)CCC12 (stereo not drawn)	> 64 µg/mL	> 64 µg/mL	> 64 µg/mL	> 64 µg/mL
O=C(O)c1c2c(nc3ccccc13)/C(=C/c1ccc(-c3ccc(Cl)cc3)o1)CCC2	16 µg/mL (≈ 38.5 µM)	16 µg/mL (≈ 38.5 µM)	> 64 µg/mL	32 µg/mL (≈ 76.9 µM)
CC1(C)C/C(=C\c2ccc(-c3cccc(Cl)c3Cl)o2)c2nc3ccccc3c(C(=O)O)c2C1	16 µg/mL (≈ 33.4 µM)	8 µg/mL (≈ 16.7 µM)	8 µg/mL (≈ 16.7 µM)	> 64 µg/mL
O=C(O)c1c2c(nc3ccccc13)/C(=C/c1ccc(-c3cccc(Cl)c3)o1)CCC2	16 µg/mL (≈ 38.5 µM)	16 µg/mL (≈ 38.5 µM)	> 64 µg/mL	16 µg/mL (≈ 38.5 µM)
CC1C/C(=C\c2ccc(-c3ccc(Cl)cc3)o2)c2nc3ccccc3c(C(=O)O)c2C1 (racemic)	8 µg/mL (≈ 18.6 µM)	16 µg/mL (≈ 37.2 µM)	> 64 µg/mL	32 µg/mL (≈ 74.4 µM)
COc1ccc(-c2ccc(/C=C3\CC(C)Cc4c3nc3ccccc3c4C(=O)O)o2)cc1 (racemic)	> 64 µg/mL	16 µg/mL (≈ 37.6 µM)	> 64 µg/mL	32 µg/mL (≈ 75.2 µM)
CC1C/C(=C\c2ccc(-c3ccc(Cl)c(C(F)(F)F)c3)o2)c2nc3ccccc3c(C(=O)O)c2C1 (racemic)	2 µg/mL (≈ 4.02 µM)	8 µg/mL (≈ 16.1 µM)	8 µg/mL (≈ 16.1 µM)	32 µg/mL (≈ 64.3 µM)
CC1C/C(=C\c2ccc(-c3cccc(Cl)c3Cl)o2)c2nc3ccccc3c(C(=O)O)c2C1 (racemic)	2 µg/mL (≈ 4.31 µM)	8 µg/mL (≈ 17.2 µM)	8 µg/mL (≈ 17.2 µM)	64 µg/mL (≈ 138 µM)
CC1C/C(=C\c2ccc(-c3cccc(Cl)c3Cl)cc2)c2nc3ccccc3c(C(=O)O)c2C1 (racemic)	2 µg/mL (≈ 4.22 µM)	8 µg/mL (≈ 16.9 µM)	8 µg/mL (≈ 16.9 µM)	> 64 µg/mL
CC1C/C(=C\c2ccc(-c3ccc(Cl)c(C(F)(F)F)c3)o2)c2nc3ccccc3c(C(=O)N3CCN(C)CC3)c2C1 (racemic)	> 64 µg/mL	> 64 µg/mL	> 64 µg/mL	> 64 µg/mL
CC1C/C(=C\c2ccc(-c3ccc(Cl)c(C(F)(F)F)c3)nc2)c2nc3ccccc3c(C(=O)O)c2C1 (racemic)	4 µg/mL (≈ 7.86 µM)	8 µg/mL (≈ 15.7 µM)	8 µg/mL (≈ 15.7 µM)	> 64 µg/mL
CC1C/C(=C\c2cccc(-c3ccc(Cl)c(C(F)(F)F)c3)c2)c2nc3cc(N4CCOCC4)ccc3c(C(=O)O)c2C1 (racemic)	8 µg/mL (≈ 13.5 µM)	4 µg/mL (≈ 6.74 µM)	32 µg/mL (≈ 54 µM)	8 µg/mL (≈ 13.5 µM)
CC1C/C(=C\c2cccc(-c3ccc(Cl)c(C(F)(F)F)c3)c2)c2nc3cc(N4CCN(C)CC4)ccc3c(C(=O)O)c2C1 (racemic)	16 µg/mL (≈ 26.4 µM)	8 µg/mL (≈ 13.2 µM)	8 µg/mL (≈ 13.2 µM)	8 µg/mL (≈ 13.2 µM)
CC1C/C(=C\c2cccc(-c3ccc(Cl)c(C(F)(F)F)c3)c2)c2nc3ccccc3c(C(N)=O)c2C1 (racemic)	> 64 µg/mL	> 64 µg/mL	> 64 µg/mL	> 64 µg/mL
CC1C/C(=C\c2ccco2)c2nc3ccccc3c(C(=O)O)c2C1 (racemic)	> 64 µg/mL	16 µg/mL (≈ 50.1 µM)	> 64 µg/mL	32 µg/mL (≈ 100 µM)
COc1ccc2nc3c(c(C(=O)O)c2c1)CC(C)C/C3=C\c1ccc(-c2ccc(Cl)c(C(F)(F)F)c2)cc1 (racemic)	4 µg/mL (≈ 7.44 µM)	4 µg/mL (≈ 7.44 µM)	4 µg/mL (≈ 7.44 µM)	> 64 µg/mL
Cc1ccc(-c2ccc(/C=C3\CC(C)Cc4c3nc3ccccc3c4C(=O)O)o2)c(Cl)c1 (racemic)	4 µg/mL (≈ 9.01 µM)	16 µg/mL (≈ 36 µM)	8 µg/mL (≈ 18 µM)	> 64 µg/mL

Structure (SMILES)	MIC (Staphylococcus aureus)	MIC (Enterococcus faecium)	MIC (Enterococcus faecalis)	MIC (Streptococcus suis)
COc1ccc2nc3c(c(C(=O)O)c2c1)CC(C)C/C3=C\c1ccc(-c2ccc(Cl)c(C(F)(F)F)c2)o1 (racemic)	32 µg/mL (≈ 60.6 µM)	> 64 µg/mL	64 µg/mL (≈ 121 µM)	64 µg/mL (≈ 121 µM)
CC1C/C(=C\c2ccc(-c3ccc([N+](=O)[O-])cc3)o2)c2nc3ccccc3c(C(=O)O)c2C1 (racemic)	64 µg/mL (≈ 145 µM)	64 µg/mL (≈ 145 µM)	> 64 µg/mL	> 64 µg/mL
CCCCCCCCc1ccc(-c2ccc(/C=C3\CC(C)Cc4c3nc3ccc(OC)cc3c4C(=O)O)cc2)cc1 (racemic)	> 64 µg/mL	8 µg/mL (≈ 14.6 µM)	16 µg/mL (≈ 29.2 µM)	32 µg/mL (≈ 58.4 µM)
CC1C/C(=C\c2ncc([N+](=O)[O-])n2C)c2nc3ccccc3c(C(=O)O)c2C1 (racemic)	> 64 µg/mL	> 64 µg/mL	> 64 µg/mL	> 64 µg/mL
CC1C/C(=C\c2cccc(-c3ccc(Cl)c(C(F)(F)F)c3)c2)c2nc3ccc(O)cc3c(C(=O)O)c2C1 (racemic)	8 µg/mL (≈ 15.3 µM)	8 µg/mL (≈ 15.3 µM)	16 µg/mL (≈ 30.5 µM)	4 µg/mL (≈ 7.63 µM)
CC1C/C(=C\c2cccc(-c3ccc(Cl)c(C(F)(F)F)c3)c2)c2nc3ccccc3c(C(=O)O)c2C1 (racemic)	2 µg/mL (≈ 3.94 µM)	4 µg/mL (≈ 7.87 µM)	4 µg/mL (≈ 7.87 µM)	> 64 µg/mL
CC1C/C(=C\c2nc(-c3ccc(Cl)c(C(F)(F)F)c3)cs2)c2nc3ccccc3c(C(=O)O)c2C1 (racemic)	16 µg/mL (≈ 31.1 µM)	32 µg/mL (≈ 62.1 µM)	16 µg/mL (≈ 31.1 µM)	64 µg/mL (≈ 124 µM)
CC1C/C(=C\c2ccc(-c3c(Cl)cc(C(F)(F)F)cc3Cl)cc2)c2nc3ccccc3c(C(=O)O)c2C1 (racemic)	4 µg/mL (≈ 7.37 µM)	8 µg/mL (≈ 14.7 µM)	8 µg/mL (≈ 14.7 µM)	> 64 µg/mL
CC1C/C(=C\c2cccc(-c3cccc(Cl)c3Cl)c2)c2nc3ccccc3c(C(=O)O)c2C1 (racemic)	4 µg/mL (≈ 8.43 µM)	8 µg/mL (≈ 16.9 µM)	8 µg/mL (≈ 16.9 µM)	> 64 µg/mL
Cc1cc(/C=C2\CC(C)Cc3c2nc2ccccc2c3C(=O)O)cc(C)c1Oc1ccc([N+](=O)[O-])cc1 (racemic)	4 µg/mL (≈ 8.09 µM)	8 µg/mL (≈ 16.2 µM)	16 µg/mL (≈ 32.4 µM)	> 64 µg/mL
COc1ccc2nc3c(c(C(=O)O)c2c1)CC(C)C/C3=C\c1ccc(Oc2c(Cl)cc(N)cc2Cl)cc1 (racemic)	4 µg/mL (≈ 7.47 µM)	8 µg/mL (≈ 14.9 µM)	16 µg/mL (≈ 29.9 µM)	64 µg/mL (≈ 120 µM)
CCCCCCc1ccc(-c2ccc(/C=C3\CC(C)Cc4c3nc3ccc(OC)cc3c4C(=O)O)cc2)cc1 (racemic)	16 µg/mL (≈ 30.8 µM)	4 µg/mL (≈ 7.7 µM)	8 µg/mL (≈ 15.4 µM)	32 µg/mL (≈ 61.6 µM)
Cc1cc(/C=C2\CC(C)Cc3c2nc2ccccc2c3C(=O)O)cc(C)c1O (racemic)	> 64 µg/mL	> 64 µg/mL	> 64 µg/mL	> 64 µg/mL
CC1C/C(=C\c2ccc(-c3ccc(Cl)c(Cl)c3)o2)c2nc3ccccc3c(C(=O)O)c2C1 (racemic)	8 µg/mL (≈ 17.2 µM)	16 µg/mL (≈ 34.5 µM)	8 µg/mL (≈ 17.2 µM)	> 64 µg/mL
CC1C/C(=C\c2cccc(-c3ccc(Cl)c(C(F)(F)F)c3)c2)c2nc3ccccc3cc2C1 (racemic)	> 64 µg/mL	> 64 µg/mL	> 64 µg/mL	> 64 µg/mL
CC1C/C(=C\c2cc3ccc(Br)cc3s2)c2nc3ccccc3c(C(=O)O)c2C1 (racemic)	16 µg/mL (≈ 34.5 µM)	64 µg/mL (≈ 138 µM)	16 µg/mL (≈ 34.5 µM)	64 µg/mL (≈ 138 µM)
COc1ccc2nc3c(c(C(=O)O)c2c1)CC(C)C/C3=C\c1cccc(NC(=O)c2cccc(Cl)c2Cl)c1 (racemic)	> 64 µg/mL	> 64 µg/mL	> 64 µg/mL	> 64 µg/mL
CC1C/C(=C\c2ccc(-c3c(Cl)cc(Cl)cc3Cl)cc2)c2nc3ccccc3c(C(=O)O)c2C1 (racemic)	2 µg/mL (≈ 3.93 µM)	8 µg/mL (≈ 15.7 µM)	4 µg/mL (≈ 7.86 µM)	> 64 µg/mL
